These results are taken from publication PMC10497752, “Heparins are potent inhibitors of ectonucleotide pyrophosphatase/phospho-diesterase-1 (NPP1) – a promising target for the immunotherapy of cancer” (Frontiers in Immunology, 2023).

One test has as its target T1, human NPP4 (Homo sapiens, UniProt Q9Y6X5).
T1 construct: as a substrate and human soluble NPP4; made in house
T1 sequence (Q9Y6X5 16-407 limits assumed): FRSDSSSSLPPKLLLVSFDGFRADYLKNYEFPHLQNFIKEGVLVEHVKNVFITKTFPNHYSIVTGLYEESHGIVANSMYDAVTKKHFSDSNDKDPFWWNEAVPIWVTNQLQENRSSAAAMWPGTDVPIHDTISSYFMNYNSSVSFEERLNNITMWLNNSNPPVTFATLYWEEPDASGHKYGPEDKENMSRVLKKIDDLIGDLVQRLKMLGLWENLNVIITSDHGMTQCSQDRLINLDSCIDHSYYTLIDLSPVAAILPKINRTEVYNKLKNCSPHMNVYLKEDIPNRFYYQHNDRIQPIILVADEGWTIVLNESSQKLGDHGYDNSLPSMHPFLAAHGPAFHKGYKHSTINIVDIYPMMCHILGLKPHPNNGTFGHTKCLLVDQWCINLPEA
Briefly: NPP4 luminescence-based assay, Ap4A as substrate. The class given is biochemical. To be noted: 20 µg/mL (12 µM). As to the method: Selectivity studies on NPP4 were performed using a published luminescence-based assay versus 20 μM of diadenosine tetraphosphate (Ap4A) as a substrate and human soluble NPP4 ([24]). The assay buffer consisted of 10 mM HEPES, 1 mM MgCl2, and 2 mM CaCl2 (pH 8.00). The enzyme reaction was started by adding 0.14 μg of purified human NPP4 to the reaction mixture, which was incubated at 37°C for 90 min. The released product ATP was quantified using the luciferin-luciferase reaction. The firefly luciferase reacts with D-luciferin in the presence of the formed ATP and Mg^2+. The resulting luminescence is a measure of the enzymatic activity, and the luminescence was read at 560 nm using a microplate reader (BMG PheraStar). Three independent experiments were performed, each in duplicate measurements; positive and negative controls were included.

For test [1], the system named is ectonucleotidases expressed in U87 cell membrane preparations. Briefly: Enzymatic assay on U87 cell membrane preparations (adenosine formation, CE). The class given is biochemical, human. To be noted: 6 at 3 and 30 µM, 7 at 35 µM. On the procedure: U87 glioblastoma cells were grown in cell culture dishes until reaching a fully covered confluent cell layer. Cells were cultivated at 37°C and 5% CO2 in DMEM with additions of 10% FCS, 1% penicillin/streptomycin (P/S) mixture and 1% L-glutamine. When confluent, the cell culture media was carefully removed and cells were frozen at -20°C overnight. The cells were then scraped off with a cell scraper using 2-3 mL of buffer (5 mM Tris, 2 mM EDTA, pH 7.4), homogenized and centrifuged for 10 min at 1000 g. The supernatant was collected and centrifuged for 60 min at 48000 g and 4°C. The pellet was then resuspended twice with Tris buffer, pH 7.4, followed by vortexing and centrifugation. The whole procedure was performed on ice. Finally, the pellet was resuspended and homogenized. A protein concentration of 1.5 mg/mL was determined with the Bradford method ([35]), and the protein was kept at -20°C until used. The enzymatic assay was performed by incubating the membrane preparation and the substrate at 37°C and 500 rpm for 30 min, followed by heat inactivation at 95°C for 5 min. For the determination of kinetic parameters, several substrate concentrations (from 6 to 500 µM of ATP or AMP) were utilized and incubated with 10 µg of membrane preparation for 30 min at 37°C, followed by heat inactivation. Capillary electrophoresis (CE) was used for analysis and quantification of the enzymatic product according to published procedures ([11], [36]). For the determination of the enzymatic activity 400 µM of ATP were employed, and three different amounts of membrane preparation (6, 10 and 30 µg of protein) were utilized. A positive control using the known NPP1 inhibitor PSB-POM-141 (20 µM) was performed ([19]). Data were obtained from three independent experiments each in duplicate measurements. […] Controls were run in parallel.

A further test has as its target T2, human CD73 (Homo sapiens, UniProt P21589).
T2 sequence (P21589 27-574): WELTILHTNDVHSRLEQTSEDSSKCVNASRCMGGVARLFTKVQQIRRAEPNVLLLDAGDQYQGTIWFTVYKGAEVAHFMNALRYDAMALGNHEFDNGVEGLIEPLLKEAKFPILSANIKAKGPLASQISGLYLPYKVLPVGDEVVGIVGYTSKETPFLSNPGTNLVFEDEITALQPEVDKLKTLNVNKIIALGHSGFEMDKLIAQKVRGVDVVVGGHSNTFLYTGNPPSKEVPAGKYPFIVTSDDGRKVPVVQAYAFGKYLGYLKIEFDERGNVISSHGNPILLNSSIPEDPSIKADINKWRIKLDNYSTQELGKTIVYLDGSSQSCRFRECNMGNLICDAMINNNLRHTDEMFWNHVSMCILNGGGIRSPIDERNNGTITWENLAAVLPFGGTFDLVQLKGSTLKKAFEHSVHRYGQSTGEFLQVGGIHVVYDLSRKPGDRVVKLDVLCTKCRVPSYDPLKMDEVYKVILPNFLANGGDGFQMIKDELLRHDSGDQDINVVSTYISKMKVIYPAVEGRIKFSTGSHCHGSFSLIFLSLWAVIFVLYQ
Briefly: CD73 radioactive assay, [2,8-3H]AMP. The class given is biochemical. Conditions: 20 µg/mL (12 µM). As to the method: The assay was performed essentially as previously described ([32]). The enzymatic reaction was performed by mixing 0.36 ng of human CD73 ([33]) with test compound in assay buffer (25 mM Tris, 140 mM sodium chloride, 25 mM sodium dihydrogen phosphate, pH 7.4) and 5 µM of [2,8-^3H]AMP [(specific activity 7.4x10^8 Bq/mmol (20 mCi/mmol)), American Radio-labeled Chemicals, MO, USA, distributed by Hartmann Analytic, Germany]. Compound 7 was used at 800 µg/mL and compound 6 at 20 µg/mL for the selectivity test, while for initial screening compound 5 was tested at a concentration of 55 µM and 6 at 30 µM, and 1 and 2 were tested at 50 IU/mL ( Supplementary Figure 1 ). The enzymatic reaction was performed for 25 min at 37°C in a shaking water bath. Then, 500 µL of cold precipitation buffer (100 mM lanthanum chloride, 100 mM sodium acetate, pH 4.00) was added to stop the reaction and to facilitate precipitation of free phosphate and unconverted [2,8-^3H]-AMP. […] After washing each reaction vial three times with 400 µL of cold (4°C) demineralized water, 5 mL of the scintillation cocktail (ULTIMA Gold XR, PerkinElmer, MA, USA) was added and the radioactivity was measured by scintillation counting (TRICARB 2900 TR, Packard/PerkinElmer; counting efficacy: 49-52%). […]

In the case of `CO[C@H]1O[C@H](COS(=O)(=O)O)[C@@H](O[C@@H]2O[C@@H](C(=O)O)[C@@H](O[C@H]3O[C@H](COS(=O)(=O)O)[C@@H](O[C@@H]4O[C@H](C(=O)O)[C@@H](O[C@H]5O[C@H](COS(=O)(=O)O)[C@@H](O)[C@H](O)[C@H]5NS(=O)(=O)O)[C@H](O)[C@H]4O)[C@H](OS(=O)(=O)O)[C@H]3NS(=O)(=O)O)[C@H](O)[C@H]2OS(=O)(=O)O)[C@H](O)[C@H]1NS(=O)(=O)O` [Compound 6, Fondaparinux], the “NPP4 inhibition, selectivity study” value on human NPP4 is listed as “no effect”. In addition, the “inhibition of the formation of adenosine from ATP” value in test [1] is on record as “inhibited the formation of adenosine in a dose-dependent manner”. In addition, at human CD73, the “CD73 inhibition, selectivity study” value is on record as “no effect”.
